Data: US10975434B2, “Growth differentiation factor 15 as biomarker for metformin” (Sanofi-Aventis Deutschland GmbH, priority 2015, dated 2021)

Key:
[1] = system: GDF15; test: Multiplex serum biomarker analysis: GDF15 level versus metformin use and dose; assay type: in vivo, human; settings: serum of people taking varying doses of metformin; FIG. 2
Procedure: At Myriad RBM Inc., the samples were thawed at room temperature (RT), vortexed, spun at 13,000 g for 5 minutes for clarification, and an aliquot was removed into a master microtiter plate for analysis. Using automated pipetting, an aliquot of each sample was introduced into one of the capture microsphere multiplexes of the Human DiscoveryMAP. The mixtures of sample and capture microspheres were thoroughly mixed and incubated at RT for 1 hour. Multiplexed cocktails of biotinylated reporter antibodies for each multiplex (such as GDF-15), were then added robotically, and after thorough mixing, were incubated for an additional hour at RT. Multiplexes were developed using an excess of streptavidinphycoerythrin solution which was thoroughly mixed into each multiplex and incubated for 1 hour at RT. […] Testing results were determined first for the high, medium and low controls for each multiplex to ensure proper assay performance. Unknown values for each of the analytes localized in a specific multiplex were determined using 4 and 5 parameter, weighted and non-weighted curve fitting algorithms included in the data analysis package^40. […]
The 237 available biomarkers were analyzed to identify those that were statistically independent determinants of the use of metformin using unadjusted logistic regression models and forward selection. […]

[2] = system: GDF15 mRNA; test: GDF15 messenger RNA expression in primary hepatocytes (BeadChip); assay type: cell-based, mouse; settings: primary C57Bl6 hepatocytes, metformin 0.5 mM versus vehicle; P=0.003
Procedure: To further understand the link between metformin and GDF15 levels, in vitro experiments were conducted using mouse hepatocytes. Primary hepatocytes from 4 different C57Bl6 wild-type male mice were isolated by collagenase digestion as previously described^14. Briefly, cells were plated on 12-well collagen-coated plates overnight in William's Media E containing 10% fetal bovine serum (FBS) and 1% antibiotic-antimycotic. […] Media was then snap frozen and stored at −80° C. for later analyses, and cells were harvested in cell lysis buffer for assessment of total protein or RNA.
GDF15 release into the media was measured using a commercially available ELISA kit (R&D Systems, Minneapolis, Minn.) and expressed per mg of hepatocyte protein. Total RNA was isolated using the Trizol plus RNA Purification kit (Ambion), concentrated with Speedvac (Thermo), and then quantified using Quant-IT RiboGreen (LifeTech). Total RNA was then reverse transcribed and amplified using the Illumina TotalPrep RNA Amplification Kit (LifeTech) according to the manufacturer's protocol. Samples were hybridized to the Illumina Mouse Ref-8 v2.0 complementary DNA BeadChip and scanned on the iScan System (Illumina). The raw sample probe profile and control probe profile were exported from GenomeStudio version 1.9.0 (Illumina). […]

[3] = system: GDF15; test: Acute metformin injection, serum GDF15 in C57bl6 mice; assay type: in vivo, mouse; settings: 250 mg/kg intraperitoneally, male C57bl6 mice, versus saline; P<0.05
Procedure: (§1) For the acute experiments, 12 (i.e. 6 per group) 20-week old male C57bl6 mice (Jackson Laboratories) were fasted for 12 hours then allowed to feed ad libitum for 2 hours prior to injection with either metformin (250 mg/kg in 10 μl/g body weight saline) or vehicle (10 μl/g body weight saline) intraperitoneally. Blood was collected 90 minutes later by tail vein bleed, and serum was assayed for GDF15 levels using the Elisa described above (R&D Systems, Minneapolis, Minn.). […] Fed bloods were sampled by tail vein bleed from the animals at the end of the treatment period and serum GDF15 measured as above. Animal experiments were all approved by the McMaster University Animal Ethics Committee.

[4] = system: GDF15; test: Chronic metformin in high-fat diet, serum GDF15 in obese C57bl6 mice; assay type: in vivo, mouse; settings: obese insulin-resistant mice, 2.5 g/kg metformin in 60% high-fat diet for 6 weeks, versus untreated controls; P<0.05
Procedure: as §1

[5] = Outcomes during follow-up of biomarker study participants by baseline metformin use
[6] = share of the 2317 participants on metformin at baseline

Compound: CN(C)C(=N)NC(=N)N [Metformin, metformin]
- mean concentration of GDF15 by metformin dose [1]: rose with progressively higher doses
- increase in GDF15 mRNA [2]: 1.6 fold
- 90 minute serum levels of GDF 15 [3]: significantly increased
- serum GDF 15 levels after chronic treatment [4]: significantly increased
- Expanded Composite CV Outcome during follow-up, number of participants ([5]; participants on metformin at baseline, N 2317, P 0.008 vs no metformin): 622
- Death during follow-up, number of participants ([5]; participants on metformin at baseline, N 2317, P 0.01 vs no metformin): 331
- Composite CV Outcome during follow-up, number of participants ([5]; participants on metformin at baseline, N 2317, median follow-up 6.2 years, P 0.007 vs no metformin): 346
- Composite CV Outcome during follow-up, value in parentheses [5, 6]: (14.9)
- Death during follow-up, value in parentheses [5, 6]: (14.3)
- Expanded Composite CV Outcome during follow-up, value in parentheses [5, 6]: (26.8)
